Laboratory results: ChEMBL document CHEMBL4765390, “Discovery of carboxyl-containing biaryl ureas as potent RORγt inverse agonists” (Eur J Med Chem, 2020)
Values after ≈ are worked out from the molar mass of the structure shown.

What was measured:
[1] = Aqueous kinetic solubility of the compound at pH 7.4 PBS buffer at 100 uM incubated for 120 mins by LC-MS/MS analysis; assay type: physicochemical; settings: read-out: Kinetic_solubility
[2] = target: T1, Nuclear receptor ROR-gamma (Homo sapiens, UniProt P51449); assay: Inverse agonist activity at human RORgammat assessed as inhibition of N-terminal biotinylated co-activator SRC1 recruitment measured after 60 mins by FRET assay
T1 sequence (P51449 whole entry): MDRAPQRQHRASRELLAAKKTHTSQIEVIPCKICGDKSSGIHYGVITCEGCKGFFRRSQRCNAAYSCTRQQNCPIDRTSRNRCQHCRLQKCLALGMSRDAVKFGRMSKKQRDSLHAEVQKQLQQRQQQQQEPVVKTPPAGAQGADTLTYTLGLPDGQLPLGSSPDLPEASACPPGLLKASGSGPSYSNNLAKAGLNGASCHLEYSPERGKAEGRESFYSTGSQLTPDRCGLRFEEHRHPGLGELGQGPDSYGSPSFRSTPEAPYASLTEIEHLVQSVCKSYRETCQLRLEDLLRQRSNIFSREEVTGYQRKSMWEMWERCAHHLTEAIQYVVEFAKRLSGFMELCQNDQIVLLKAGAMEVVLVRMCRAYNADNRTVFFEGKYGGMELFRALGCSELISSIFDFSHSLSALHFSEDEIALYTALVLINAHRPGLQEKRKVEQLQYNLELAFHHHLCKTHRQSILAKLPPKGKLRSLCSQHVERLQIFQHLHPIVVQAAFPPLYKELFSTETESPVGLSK

[3] = target: T2, Nuclear receptor ROR-alpha (Homo sapiens, UniProt P35398); assay: Inverse agonist activity at ROR-alpha (unknown origin) expressed in HEK293 cells by Gal4-luciferase reporter assay; assay type: cell-based
T2 sequence (P35398 whole entry): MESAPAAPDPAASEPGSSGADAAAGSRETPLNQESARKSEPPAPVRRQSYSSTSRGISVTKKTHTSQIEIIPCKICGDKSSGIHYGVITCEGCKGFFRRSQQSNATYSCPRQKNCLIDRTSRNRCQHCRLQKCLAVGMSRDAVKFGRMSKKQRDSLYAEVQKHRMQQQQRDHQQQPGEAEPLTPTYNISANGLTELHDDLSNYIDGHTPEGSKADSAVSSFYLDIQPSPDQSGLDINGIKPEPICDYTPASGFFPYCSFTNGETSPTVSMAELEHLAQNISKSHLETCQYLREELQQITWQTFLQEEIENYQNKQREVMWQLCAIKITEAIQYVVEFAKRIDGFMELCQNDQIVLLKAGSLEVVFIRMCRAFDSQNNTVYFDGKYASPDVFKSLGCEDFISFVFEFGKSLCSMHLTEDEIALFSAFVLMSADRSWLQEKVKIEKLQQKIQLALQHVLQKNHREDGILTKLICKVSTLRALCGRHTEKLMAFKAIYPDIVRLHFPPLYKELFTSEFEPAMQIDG

[4] = target: T3, Nuclear receptor ROR-beta (Homo sapiens, UniProt Q92753); assay: Inverse agonist activity at ROR-beta (unknown origin) expressed in HEK293 cells by Gal4-luciferase reporter assay; assay type: cell-based
T3 sequence (Q92753 whole entry): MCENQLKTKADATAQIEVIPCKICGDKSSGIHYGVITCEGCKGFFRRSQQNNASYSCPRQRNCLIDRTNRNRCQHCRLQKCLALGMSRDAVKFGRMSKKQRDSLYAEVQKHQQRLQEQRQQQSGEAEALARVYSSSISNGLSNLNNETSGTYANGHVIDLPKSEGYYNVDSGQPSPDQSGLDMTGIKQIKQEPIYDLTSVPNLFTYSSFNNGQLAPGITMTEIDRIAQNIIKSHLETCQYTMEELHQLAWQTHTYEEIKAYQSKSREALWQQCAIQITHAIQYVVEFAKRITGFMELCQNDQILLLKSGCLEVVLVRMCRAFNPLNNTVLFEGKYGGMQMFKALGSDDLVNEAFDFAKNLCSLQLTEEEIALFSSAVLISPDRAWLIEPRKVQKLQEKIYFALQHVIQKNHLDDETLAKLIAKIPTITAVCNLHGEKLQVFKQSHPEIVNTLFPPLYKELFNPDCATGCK

[5] = Tmax in CD-1 mouse at 5 mg/kg, po administered as single dose measured after 24 hrs by LC-MS/MS analysis; assay type: ADME, organism-based; settings: in vivo
[6] = Cmax in CD-1 mouse at 1 mg/kg, iv administered as single dose measured after 24 hrs by LC-MS/MS analysis; assay type: ADME, organism-based; parameters: route intravenous, time 24 hrs, dose 1 mg/kg; settings: in vivo
[7] = Cmax in CD-1 mouse at 5 mg/kg, po administered as single dose measured after 24 hrs by LC-MS/MS analysis; assay type: ADME, organism-based; parameters: route oral, time 24 hrs, dose 5 mg/kg; settings: in vivo
[8] = AUC (0 to last) in CD-1 mouse at 1 mg/kg, iv administered as single dose measured after 24 hrs by LC-MS/MS analysis; assay type: ADME, organism-based; parameters: route intravenous, dose 1 mg/kg, time 24 hrs; settings: in vivo
[9] = AUC (0 to last) in CD-1 mouse at 5 mg/kg, po administered as single dose measured after 24 hrs by LC-MS/MS analysis; assay type: ADME, organism-based; parameters: route oral, dose 5 mg/kg, time 24 hrs; settings: in vivo
[10] = Volume of distribution at steady state in CD-1 mouse at 1 mg/kg, iv administered as single dose measured after 24 hrs by LC-MS/MS analysis; assay type: ADME, organism-based; settings: in vivo, read-out: Vdss
[11] = Half life in CD-1 mouse at 1 mg/kg, iv administered as single dose measured after 24 hrs by LC-MS/MS analysis; assay type: ADME, organism-based; settings: in vivo
[12] = Half life in CD-1 mouse at 5 mg/kg, po administered as single dose measured after 24 hrs by LC-MS/MS analysis; assay type: ADME, organism-based; settings: in vivo
[13] = Clearance in CD-1 mouse at 1 mg/kg, iv administered as single dose measured after 24 hrs by LC-MS/MS analysis; assay type: ADME, organism-based; settings: in vivo
[14] = Oral bioavailability in CD-1 mouse at 5 mg/kg administered as single dose measured after 24 hrs by LC-MS/MS analysis; assay type: ADME, organism-based; settings: in vivo

| SMILES | IC50 [2] [nM] | further results |
| --- | --- | --- |
| CCS(=O)(=O)c1ccc(CC(=O)Nc2cc(Cl)c(-c3ccccc3OC(F)(F)F)c(Cl)c2)cc1 | – | solubility kinetic at 2 h, 100 µM [1]: 1.25 µg/mL (≈ 2.35 µM) |
| O=C(NCc1ccc(C(O)CO)cc1)Nc1cc(Cl)c(-c2ccccc2OC(F)(F)F)c(Cl)c1 (configuration not stated) | 584 | – |
| Cc1cc(CNC(=O)Nc2cc(Cl)c(-c3ccccc3OC(F)(F)F)c(Cl)c2)ccc1CC(=O)O | 995 | – |
| CCS(=O)(=O)c1ccc(OCC(=O)Nc2cc(Cl)c(-c3ccccc3OC(F)(F)F)c(Cl)c2)cc1 | 99 | – |
| Cc1cc(CC(=O)O)ccc1CNC(=O)Nc1cc(Cl)c(-c2ccccc2OC(F)(F)F)c(Cl)c1 | 398 | – |
| CS(=O)(=O)c1ccc(CNC(=O)Nc2cc(Cl)c(-c3ccccc3OC(F)(F)F)c(Cl)c2)cc1 | 69 | – |
| CCS(=N)(=O)c1ccc(CNC(=O)Nc2cc(Cl)c(-c3ccccc3OC(F)(F)F)c(Cl)c2)cc1 (configuration not stated) | 200 | – |
| O=C(O)Cc1ccc(CNC(=O)Nc2cc(F)c(-c3ccccc3OC(F)(F)F)c(F)c2)nc1 | 996 | – |
| CC(C(=O)O)c1ccc(CNC(=O)Nc2cc(Cl)c(-c3ccccc3OC(F)(F)F)c(Cl)c2)nc1 (configuration not stated) | 1780 | – |
| CCS(=O)(=O)c1ccc(CNC(=O)c2cc(Cl)c(-c3ccccc3OC(F)(F)F)c(Cl)c2)cc1 | 112 | – |
| CCS(=O)(=O)c1ccc(COCc2cc(Cl)c(-c3ccccc3OC(F)(F)F)c(Cl)c2)cc1 | 4410 | – |
| O=C(O)Cc1ccc(CNC(=O)Nc2ccc(-c3ccccc3)cc2)cc1 | > 30000 | – |
| Cc1cc(NC(=O)NCc2ccc(CC(=O)O)cn2)cc(C)c1-c1ccccc1OC(F)F | 345 | – |
| O=C(NCc1ccc(C(O)C(=O)O)cc1)Nc1cc(Cl)c(-c2ccccc2OC(F)(F)F)c(Cl)c1 (configuration not stated) | 278 | – |
| O=C(O)Cc1ccc(CNC(=O)Nc2cc(Cl)c(-c3ccccc3OC(F)(F)F)c(Cl)c2)cc1 | – | solubility kinetic at 2 h, 100 µM [1]: 84 µg/mL (≈ 164 µM); IC50 [3]: > 10000 nM; IC50 [4]: > 10000 nM; Tmax [5]: 1 h; Cmax [6]: 1550 ng/mL; Cmax [7]: 609 ng/mL; AUC(0-t) at 24 h [8]: 1270 ng·h/mL; AUC(0-t) at 24 h [9]: 2410 ng·h/mL; Vd [10]: 1.78 L/kg; half-life [11]: 3.04 h; half-life [12]: 3.63 h; clearance [13]: 13.1 mL/min/kg; bioavailability [14]: 38.1% |
| O=C(NCc1ccc(C(=O)O)cc1)Nc1cc(Cl)c(-c2ccccc2OC(F)(F)F)c(Cl)c1 | 1100 | – |
| O=C(NCc1ccc(C(F)C(=O)O)cc1)Nc1cc(Cl)c(-c2ccccc2OC(F)(F)F)c(Cl)c1 (configuration not stated) | 124 | – |
| CNS(=O)(=O)c1ccc(CNC(=O)Nc2cc(Cl)c(-c3ccccc3OC(F)(F)F)c(Cl)c2)cc1 | 99.8 | – |
| O=C(O)CCc1ccc(CNC(=O)Nc2cc(Cl)c(-c3ccccc3OC(F)(F)F)c(Cl)c2)cc1 | 841 | – |
| NS(=O)(=O)c1ccc(CNC(=O)Nc2cc(Cl)c(-c3ccccc3OC(F)(F)F)c(Cl)c2)cc1 | 276 | – |
| CC(=O)NS(=O)(=O)c1ccc(CNC(=O)Nc2cc(Cl)c(-c3ccccc3OC(F)(F)F)c(Cl)c2)cc1 | 138 | – |
| CC(C(=O)O)c1ccc(CNC(=O)Nc2cc(Cl)c(-c3ccccc3OC(F)(F)F)c(C#N)c2)cc1 (configuration not stated) | 334 | – |
| CC(C(=O)O)c1ccc(CNC(=O)Nc2cc(Cl)c(-c3ccccc3OC(F)(F)F)c(Cl)c2)cc1 (configuration not stated) | 541 | – |
| CCS(=O)(=O)c1ccc(CCOc2cc(Cl)c(-c3ccccc3OC(F)(F)F)c(Cl)c2)cc1 | 426 | – |
| CCS(=O)(=O)c1ccc(CCNc2cc(Cl)c(-c3ccccc3OC(F)(F)F)c(Cl)c2)cc1 | 21.6 | – |
